PubChem BioAssay AID2060505 (Molecular Pharmacology Branch, DTP, NCI, 2025)

System: 633275-114-R-J1-PDC complex spheroids, viability
Assay: Anticancer human tumor 633275-114-R-J1-PDC patient-derived endometrial adenocarcinoma cell line growth inhibition [GQUAD]
Conditions: for IC50: curve of first compound; for viability, T/C: stronger effect = lower value
Outline: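 Viability of tumor cells grown as complex spheroids with endothelial and stromal cells, exposed to drug combinations. Top concentration at or near clinical Cmax (else 10 microM), diluted in half-log increments.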

[1] = second compound 0.0316 µM, first compound 0.0316 µM
[2] = second compound 0.0316 µM, first compound 0.1 µM
[3] = second compound 0.0316 µM, first compound 0.316 µM
[4] = second compound 0.0316 µM, first compound 1 µM
[5] = second compound 0.0316 µM, first compound 3.16 µM
[6] = second compound 0.0316 µM, first compound 10 µM
[7] = second compound 0.1 µM, first compound 0.0316 µM
[8] = second compound 0.1 µM, first compound 0.1 µM
[9] = second compound 0.1 µM, first compound 0.316 µM
[10] = second compound 0.1 µM, first compound 1 µM
[11] = second compound 0.1 µM, first compound 3.16 µM
[12] = second compound 0.1 µM, first compound 10 µM
[13] = second compound 0.316 µM, first compound 0.0316 µM
[14] = second compound 0.316 µM, first compound 0.1 µM
[15] = second compound 0.316 µM, first compound 0.316 µM
[16] = second compound 0.316 µM, first compound 1 µM
[17] = second compound 0.316 µM, first compound 3.16 µM
[18] = second compound 0.316 µM, first compound 10 µM
[19] = second compound 1 µM, first compound 0.0316 µM
[20] = second compound 1 µM, first compound 0.1 µM
[21] = second compound 1 µM, first compound 0.316 µM
[22] = second compound 1 µM, first compound 1 µM
[23] = second compound 1 µM, first compound 3.16 µM
[24] = second compound 1 µM, first compound 10 µM
[25] = second compound 3.16 µM, first compound 0.0316 µM
[26] = second compound 3.16 µM, first compound 0.1 µM
[27] = second compound 3.16 µM, first compound 0.316 µM
[28] = second compound 3.16 µM, first compound 1 µM
[29] = second compound 3.16 µM, first compound 3.16 µM
[30] = second compound 3.16 µM, first compound 10 µM
[31] = second compound 10 µM, first compound 0.0316 µM
[32] = second compound 10 µM, first compound 0.1 µM
[33] = second compound 10 µM, first compound 0.316 µM
[34] = second compound 10 µM, first compound 1 µM
[35] = second compound 10 µM, first compound 3.16 µM
[36] = second compound 10 µM, first compound 10 µM
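Note: spheroids exposed to the agents for seven days.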
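Throughout, for viability, T/C: percent of DMSO vehicle control viability which is 100%.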

With `C#Cc1c(F)ccc2cc(O)cc(-c3ncc4c(N5CC6CCC(C5)N6)nc(OCC56CCCN5CC(F)C6)nc4c3F)c12` (stereo unspecified) + Cc1cnc(CNC(=O)c2c(=O)c3ccc(N4CCCN(C)CC4)nc3n3c2sc2ccccc23)cn1 the IC50 (second compound 0.0316 µM) was 3.91 µM, the IC50 (second compound 0.1 µM) was 0.157 µM and the IC50 (second compound 0.316 µM) was < 0.0316 µM. For the same molecule, the IC50 (second compound 1 µM) was < 0.0316 µM, the IC50 (second compound 3.16 µM) was < 0.0316 µM and the IC50 (second compound 10 µM) was < 0.0316 µM. For the same molecule, the viability, T/C [1] was 68.9%, the viability, T/C [2] was 72.5% and the viability, T/C [3] was 65.2%. The viability, T/C [4] was 58.7%, the viability, T/C [5] was 47.1% and the viability, T/C [6] was 45.6%. For the same molecule, the viability, T/C [7] was 52.3%, the viability, T/C [8] was 49.7% and the viability, T/C [9] was 52.1%. The viability, T/C [10] was 44.7%, the viability, T/C [11] was 39.8% and the viability, T/C [12] was 38.9%. It also gave a viability, T/C [13] of 47.1%, a viability, T/C [14] of 49.8% and a viability, T/C [15] of 43.7%. It also gave a viability, T/C [16] of 36.4%, a viability, T/C [17] of 37.2% and a viability, T/C [18] of 26.8%. For the same molecule, the viability, T/C [19] was 41.7%, the viability, T/C [20] was 42.1% and the viability, T/C [21] was 42.1%. For the same molecule, the viability, T/C [22] was 36.3%, the viability, T/C [23] was 30.9% and the viability, T/C [24] was 26.8%. It also gave a viability, T/C [25] of 38.4%, a viability, T/C [26] of 36.2% and a viability, T/C [27] of 34.4%. It also gave a viability, T/C [28] of 31.5%, a viability, T/C [29] of 27.7% and a viability, T/C [30] of 24.3%. The viability, T/C [31] was 31.3%, the viability, T/C [32] was 32.9% and the viability, T/C [33] was 26.5%. The viability, T/C [34] was 27.2%, the viability, T/C [35] was 23.7% and the viability, T/C [36] was 23.1%.

For `CC(=O)O[C@H]1C(=O)[C@@]2(C)[C@H]([C@H](OC(=O)c3ccccc3)[C@]3(O)C[C@H](OC(=O)[C@H](O)[C@@H](NC(=O)c4ccccc4)c4ccccc4)C(C)=C1C3(C)C)[C@]1(OC(C)=O)CO[C@@H]1C[C@@H]2O` + Cc1cnc(CNC(=O)c2c(=O)c3ccc(N4CCCN(C)CC4)nc3n3c2sc2ccccc23)cn1, the IC50 (second compound 0.0316 µM) was < 0.0316 µM, the IC50 (second compound 0.1 µM) was < 0.0316 µM and the IC50 (second compound 0.316 µM) was < 0.0316 µM. The IC50 (second compound 1 µM) was < 0.0316 µM, the IC50 (second compound 3.16 µM) was < 0.0316 µM and the IC50 (second compound 10 µM) was < 0.0316 µM. It also gave a viability, T/C [1] of 43.8%, a viability, T/C [2] of 30.5% and a viability, T/C [3] of 27.4%. The viability, T/C [4] was 25.1%, the viability, T/C [5] was 24.9% and the viability, T/C [6] was 25.6%. The viability, T/C [7] was 42.3%, the viability, T/C [8] was 37.3% and the viability, T/C [9] was 32.8%. For the same molecule, the viability, T/C [10] was 35.2%, the viability, T/C [11] was 33.9% and the viability, T/C [12] was 34.1%. It also gave a viability, T/C [13] of 43.5%, a viability, T/C [14] of 39.3% and a viability, T/C [15] of 41.7%. The viability, T/C [16] was 38.2%, the viability, T/C [17] was 35.8% and the viability, T/C [18] was 35.3%. For the same molecule, the viability, T/C [19] was 38.5%, the viability, T/C [20] was 37.4% and the viability, T/C [21] was 39.3%. The viability, T/C [22] was 43.2%, the viability, T/C [23] was 35.1% and the viability, T/C [24] was 36.2%. For the same molecule, the viability, T/C [25] was 39%, the viability, T/C [26] was 35% and the viability, T/C [27] was 35.8%. It also gave a viability, T/C [28] of 39.7%, a viability, T/C [29] of 35.8% and a viability, T/C [30] of 32.6%. For the same molecule, the viability, T/C [31] was 31.1%, the viability, T/C [32] was 28.7% and the viability, T/C [33] was 27.5%. The viability, T/C [34] was 31.7%, the viability, T/C [35] was 32.4% and the viability, T/C [36] was 30.8%.

With `Cc1[nH]c2ccccc2c1CCNCc1ccc(/C=C/C(=O)NO)cc1` + Cc1cnc(CNC(=O)c2c(=O)c3ccc(N4CCCN(C)CC4)nc3n3c2sc2ccccc23)cn1 the IC50 (second compound 0.0316 µM) was 0.013 µM, the IC50 (second compound 0.1 µM) was 0.00349 µM and the IC50 (second compound 0.316 µM) was < 0.000999 µM. The IC50 (second compound 1 µM) was < 0.000999 µM, the IC50 (second compound 3.16 µM) was < 0.000999 µM and the IC50 (second compound 10 µM) was < 0.000999 µM. It also gave a viability, T/C (second compound 0.0316 µM, first compound 0.000999 µM) of 65.8%, a viability, T/C (second compound 0.0316 µM, first compound 0.00316 µM) of 59.5% and a viability, T/C (second compound 0.0316 µM, first compound 0.00999 µM) of 52.6%. It also gave a viability, T/C [1] of 41.3%, a viability, T/C (second compound 0.0316 µM, first compound 0.0999 µM) of 32% and a viability, T/C [3] of 16.2%. It also gave a viability, T/C (second compound 0.1 µM, first compound 0.000999 µM) of 56.1%, a viability, T/C (second compound 0.1 µM, first compound 0.00316 µM) of 48% and a viability, T/C (second compound 0.1 µM, first compound 0.00999 µM) of 45.2%. It also gave a viability, T/C [7] of 38%, a viability, T/C (second compound 0.1 µM, first compound 0.0999 µM) of 25.4% and a viability, T/C [9] of 15.1%. For the same molecule, the viability, T/C (second compound 0.316 µM, first compound 0.000999 µM) was 50.4%, the viability, T/C (second compound 0.316 µM, first compound 0.00316 µM) was 40.7% and the viability, T/C (second compound 0.316 µM, first compound 0.00999 µM) was 37.5%. For the same molecule, the viability, T/C [13] was 30.9%, the viability, T/C (second compound 0.316 µM, first compound 0.0999 µM) was 21.7% and the viability, T/C [15] was 9.86%. For the same molecule, the viability, T/C (second compound 1 µM, first compound 0.000999 µM) was 44.3%, the viability, T/C (second compound 1 µM, first compound 0.00316 µM) was 38.2% and the viability, T/C (second compound 1 µM, first compound 0.00999 µM) was 34.8%. It also gave a viability, T/C [19] of 33.1%, a viability, T/C (second compound 1 µM, first compound 0.0999 µM) of 21.4% and a viability, T/C [21] of 8.16%. For the same molecule, the viability, T/C (second compound 3.16 µM, first compound 0.000999 µM) was 38.3%, the viability, T/C (second compound 3.16 µM, first compound 0.00316 µM) was 32.1% and the viability, T/C (second compound 3.16 µM, first compound 0.00999 µM) was 31.9%. The viability, T/C [25] was 27.7%, the viability, T/C (second compound 3.16 µM, first compound 0.0999 µM) was 16.6% and the viability, T/C [27] was 0.13%. For the same molecule, the viability, T/C (second compound 10 µM, first compound 0.000999 µM) was 27.3%, the viability, T/C (second compound 10 µM, first compound 0.00316 µM) was 31.2% and the viability, T/C (second compound 10 µM, first compound 0.00999 µM) was 27.7%. The viability, T/C [31] was 24.8%, the viability, T/C (second compound 10 µM, first compound 0.0999 µM) was 16.5% and the viability, T/C [33] was 0.21%.
